Results as given in patent US9863934B2, “Screening methods for cognitive enhancers” (Dart Neuroscience (Cayman) Ltd., priority 2002, dated 2018).
“Also recorded” adds a separate entry of the source.

Key:
[1] = test system: normal mice; test: memory formation in normal mice after weak or strong training (% Freezing, FIG. 1); assay type: in vivo
Excerpt: FIG. 1 is a bar graph showing the results of drug-induced (partial) enhancement of memory in normal mice by rolipram, a prototypical phosphodiesterase (PDE) inhibitor. Five-day retention after weak training (2×) is lower than strong training (5×). Only memory after weak training is enhanced by bilateral hippocampal injections (1 :l) of rolipram immediately after training. Rolipram reduced the number of training sessions required to produce memory. % Freezing=% Observation time mice spent frozen/motionless.
These Active Hits were evaluated in vivo rodent models of memory formation. To do so efficiently, a new behavioral training protocol was validated, which logically was affected by upstream modulation of the CREB pathway. During initial stages of acquisition, repeated training trials lead to increased cAMP levels. At some point, cAMP levels pass a threshold, and activated PKA (catalytic subunit) is translocated to the nucleus, where it phosphorylates CREB directly or it yields a permissive state for the phosphorylation of CREB by a cofactor. In this context, phosphodiesterase (PDE) inhibitors act to increase cAMP levels beyond the threshold with fewer training trials, thereby producing more long-lasting memory with weaker training.

[2] = test system: human CREB RNA; test: human CREB bDNA assay; assay type: cell-based
Excerpt: CREB 1 and CREB 3 oligos have identical sequence homology with both mouse and human. CREB 17 has a single base mismatch.

[3] = test system: CREB mRNA in Neuro2a cells; test: bDNA assay of CREB mRNA after transfection of CREB LNA antisense oligos (FIG. 3); assay type: cell-based, Mus musculus; details: higher concentration (0.5 :M)
Experimental: Detection of CREB mRNA with the bDNA Assay. Mus musculus Neuro2a cells were obtained from American Type Culture Collection (ATCC, Cat. No. CCL-131; Manassas, Va.). Cells were plated in Modified Eagle's Minimum Essential Media (Minimum essential medium (Eagle) with 2 mM L-glutamine and Earle's BSS adjusted to contain 1.5 g/L sodium bicarbonate, 0.1 mM non-essential amino acids, and 1.0 mM sodium pyruvate, 90%; fetal bovine serum, […]) in a 96-microwell format at 2×10^4 cells per well. Cells were maintained at 37 C. and 5% CO2 overnight before transfecting with CREB Locked Nucleic Acid (LNA) oligonucleotides.
Cells were transfected using Lipofectamine 2000 (hivitrogen, Carlsbad, Calif.) with modifications to the manufacturer's protocol. […]
The direct quantitation of CREB messenger RNA (mRNA) following transfection of antisense oligos, was detected using the QuantiGene Expression Kit according to the manufacturer's protocol (Bayer Corporation; Tarrytown, N.Y.). […] The luminescence of each well was measured in a Wallac Victor2 V (Perkin Elmer) plate luminometer at 45 C. […]

Compound	number of training sessions required to produce memory [1]	memory (five-day retention, % Freezing) after weak training ([1]; weak training (2×), not strong training (5×), bilateral hippocampal injections (1 :l) immediately after training)	knocking down human CREB RNA levels [2]	effect on endogenous CREB RNA levels [3]
COc1ccc(C2CNC(=O)C2)cc1OC1CCCC1 (stereo not drawn) [rolipram]	reduced	effect was established as predicted; also recorded: enhanced		
CCTCCgCCgCgTCACTCA (LNA modifications, as printed in the source, key not given here) [CREB1, CREB Locked Nucleic Acid (LNA) antisense oligonucleotide]			factional in knocking down human CREB RNA levels	
TggCACTgTTACAgTggT (LNA modifications, as printed in the source, key not given here) [CREB17, CREB LNA antisense oligonucleotide; single base mismatch to human]			factional in knocking down human CREB RNA levels	
TggTCATTTAgTTACCggTg (as printed in the source, key not given here) [CREB3]			factional in knocking down human CREB RNA levels	reduces endogenous CREB RNA levels
